Laboratory results reported in article PMC7537607 (Computational Biology and Chemistry, 2020).
Converted amounts (≈) assume the structure as drawn. “And” between values parts separate entries of the source, which are not always exact repeats. Equal values may be shown once. Read-outs that look alike come from different tables or passages of the source.

Assays:
[1] = tested on: Para-influenza-3 virus; test: organism not typed; format: cell-based; details: for EC50: Vero, read-out: EC50 Para-influenza-3 virus
[2] = tested on: Reovirus-1; test: organism not typed; format: cell-based; details: for EC50: Vero, read-out: EC50 Reovirus-1
[3] = tested on: Yellow Fever virus; test: microbe, parasite or virus in culture; format: cell-based; details: for EC50: Yellow fever virus, Vero, read-out: EC50 Yellow Fever virus
[4] = tested on: Vero cells
[5] = tested on: Punta Toro virus; test: microbe, parasite or virus in culture; format: cell-based; details: Vero, read-out: EC50 Punta Toro virus
[6] = tested on: Coxsackie virus B4; test: microbe, parasite or virus in culture; format: cell-based; details: Enterovirus B, B4, Vero, read-out: EC50 Coxsackie virus B4
[7] = tested on: Sindbis virus; test: microbe, parasite or virus in culture; format: cell-based; details: Vero, read-out: EC50 Sindbis virus
[8] = in vitro; details: human; for viability: 48 h
[9] = tested on: HIV-1 (strain NL4.3); test: microbe, parasite or virus in culture; format: cell-based
[10] = Cytotoxicity % Viability Exp - 1, 10 μg/mL
[11] = Cytotoxicity % Viability Exp - 1, 100 μg/mL

Molecule | EC50 Para-influenza-3 virus [1] | EC50 Reovirus-1 [2] | SI (Yellow Fever Virus), ratio of MCC to EC50 [3] | Minimum cytotoxic concentration (MCC) [4] | Minimum cytotoxic concentration (MCC), molar value in parentheses [4] | EC50 [1] | EC50 [2] | EC50 [5] | EC50 [3] | EC50 [6] | EC50 [7] | viability [8, 10] | viability [8, 11] | Minimum cytotoxic concentration (MCC) ([4]; African green monkey) | SI (Selectivity index ratio CC50/IC50) [9] | IC50 ([9]; Human immunodeficiency virus 1, TZM-bl, read-out: IC50 (HIV infection)) | CC50 [8] | viability ([8]; Cytotoxicity % Viability Exp - 2, 1 μg/mL) | viability ([8]; Cytotoxicity % Viability Exp - 2, 5 μg/mL) | viability ([8]; Cytotoxicity % Viability Exp - 2, 10 μg/mL)
dextran sulfate [DS - 10.000, reference compound] | >100 mg/L | >100 mg/L | 125 | >100 (0.01μM) μg/mL | >100 (0.01μM) |  |  |  |  |  |  |  |  |  |  |  |  |  |  | 
OCCCn1c(Cl)nc2ccccc21 [Compound 1b, 3-(2-Chloro-1H-benzimidazol-1-yl)propan-1-ol] |  |  | 1 |  |  | > 100 mg/L | > 100 mg/L | > 100 mg/L | > 100 mg/L | > 100 mg/L | > 100 mg/L | 92.6% | 58.6% | >100 µg/mL |  |  |  |  |  | 
OCCn1c(Cl)nc2ccccc21 [Compound 1a, 2-(2-Chloro-1H-benzimidazol-1-yl)ethan-1-ol] |  |  | 1 |  |  | > 100 mg/L | > 100 mg/L | > 100 mg/L | > 100 mg/L | > 100 mg/L | > 100 mg/L | 90.1% | 53.6% | >100 µg/mL |  |  |  |  |  | 
O=[N+]([O-])c1cc2nc(Cl)n(CCCO)c2cc1[N+](=O)[O-] [Compound 4b, 3-(2-Chloro-5,6-dinitro-1H-benzimidazol-1-yl)propan-1-ol] |  |  | 1 |  |  | > 100 mg/L | > 100 mg/L | > 100 mg/L | > 100 mg/L | > 100 mg/L | > 100 mg/L | 92.1% | 90.9% | ≥100 µg/mL |  |  |  |  |  | 
O=[N+]([O-])c1ccc2c(c1)nc(Cl)n2CCCO [Compound 2b, 3-(2-Chloro-5-nitro-1H-benzimidazol-1-yl)propan-1-ol] |  |  |  |  |  | > 100 mg/L | > 100 mg/L | > 100 mg/L |  | > 100 mg/L | > 100 mg/L | 91.2% | 69.1% |  |  |  |  |  |  | 
NC(=O)c1ncn([C@@H]2O[C@H](CO)[C@@H](O)[C@H]2O)n1 [Ribavirin, reference compound] |  |  | 1 |  |  | 250 µM | > 250 µM | > 250 µM | > 250 µM | > 250 µM | > 250 µM |  |  |  |  |  |  |  |  | 
O=[N+]([O-])c1cc2nc(Cl)n(CCO)c2cc1[N+](=O)[O-] [Compound 4a, 2-(2-Chloro-5,6-dinitro-1H-benzimidazol-1-yl)ethan-1-ol] |  |  | 1 |  |  | > 100 mg/L | > 100 mg/L | > 100 mg/L | > 100 mg/L | > 100 mg/L | > 100 mg/L | 99.9% | 11.2% | >100 µg/mL |  |  |  |  |  | 
OCCCn1c(Cl)nc2cc(Br)c(Br)cc21 [Compound 3b, 3-(5,6-Dibromo-2-chloro-1H-benzimidazol-1-yl)propan-1-ol] |  |  | 1 |  |  | > 100 mg/L | > 100 mg/L | > 100 mg/L | > 100 mg/L | > 100 mg/L | > 100 mg/L | 102% | 79.8% | >100 µg/mL |  |  |  |  |  | 
Cc1ccnc2c1NC(=O)c1cccnc1N2C1CC1 [Nevirapine, reference compound] |  |  |  |  |  |  |  |  |  |  |  |  |  |  | >200 |  |  |  |  | 
O=[N+]([O-])c1ccc2c(c1)nc(Cl)n2CCO [Compound 2a, 2-(2-Chloro-5-nitro-1H-benzimidazol-1-yl)ethan-1-ol] |  |  | 1 |  |  | > 100 mg/L | > 100 mg/L | > 100 mg/L | > 100 mg/L | > 100 mg/L | > 100 mg/L | 104% | 40.4% | ≥100 µg/mL |  |  |  |  |  | 
COc1c(C)c2c(c(O)c1C/C=C(\C)CCC(=O)O)C(=O)OC2 [Mycophenolic acid, reference compound] |  |  | 125 |  |  | 0.6 µM | 6 µM | 14 µM | 0.8 µM | > 100 µM | 8.9 µM |  |  |  |  |  |  |  |  | 
OCCn1c(Cl)nc2cc(Br)c(Br)cc21 [Compound 3a, 2-(5,6-Dibromo-2-chloro-1H-benzimidazol-1-yl)ethan-1-ol] |  |  | 1 |  |  | > 100 mg/L | > 100 mg/L | > 100 mg/L | > 100 mg/L | > 100 mg/L | > 100 mg/L | 18.5% | 0.96% | 100 µg/mL | 2.73 | 1.37 mg/L (≈ 3.87 µM) | 3.74 µg/mL and 10.5 µM | 83.7% | 49% | 13.7%
